This series is described as follows: Apparent clearance in BALB/c mouse at 5 mg/kg, ip measured after upto 24 hrs by LC-MS/MS analysis. The series is classed as ADME, organism-based. The conditions noted are these: in vivo, read-out: CLz/F (converted).

For `Cl.Cn1cc(CN2CC3(CCN(c4ncc(C(=O)NO)cn4)C3)C2)c2ccc(C#N)cc21`, the CL/F is 130 mL/min/kg.

Values taken from ChEMBL document CHEMBL5046276 (J Med Chem, 2022).
